In ChEMBL document CHEMBL4385672, “Design, synthesis and biological evaluation of 2-(3,4-dimethoxyphenyl)-6 (1,2,3,6-tetrahydropyridin-4-yl)imidazo[1,2-a]pyridine analogues as antiproliferative agents” (Bioorg Med Chem Lett, 2019):
Calls of active or inactive are those of the source. No cut-off for these calls is given here.

Experiments:
MCF7 = test: Antiproliferative activity against human MCF7 cells; type: functional, cell-based
[1] = Selectivity index, ratio of IC50 for cytotoxicity in HEK293 cells assessed as reduction in cell viability incubated for 48 hrs by MTT assay to IC50 for antiproliferative activity against mouse B16F10 cells incubated for 48 hrs by MTT assay; type: toxicity, cell-based; details: read-out: Ratio IC50
B16-F10 [2] = test: Induction of apoptosis in mouse B16F10 cells assessed as early apoptosis cells level at 7 uM incubated for 48 hrs by Annexin V-FITC and PI staining based flow cytometry (reference value: 0.03 +/- 0.013%); type: functional
HEK293 = test: Cytotoxicity in HEK293 cells assessed as reduction in cel viability incubated for 48 hrs by MTT assay; type: cell-based; details: Homo sapiens, HEK293, 48 h
A549 [3] = test: Antiproliferative activity against human A549 cells at 10 to 100 uM incubated for 48 hrs by MTT assay; type: functional, cell-based
[4] = Selectivity index, ratio of IC50 for cytotoxicity in HEK293 cells assessed as reduction in cell viability incubated for 48 hrs by MTT assay to IC50 for antiproliferative activity against human A549 cells incubated for 48 hrs by MTT assay; type: toxicity, cell-based; details: read-out: Ratio IC50
B16-F10 [5] = test: Antiproliferative activity against mouse B16F10 cells incubated for 48 hrs by MTT assay; type: functional, cell-based; details: B16-F10, 48 h
HeLa [6] = test: Antiproliferative activity against human HeLa cells at 10 to 100 uM incubated for 48 hrs by MTT assay; type: functional, cell-based
[7] = Selectivity index, ratio of IC50 for cytotoxicity in HEK293 cells assessed as reduction in cell viability incubated for 48 hrs by MTT assay to IC50 for antiproliferative activity against human HeLa cells incubated for 48 hrs by MTT assay; type: toxicity, cell-based; details: read-out: Ratio IC50
B16-F10 [8] = test: Antiproliferative activity against mouse B16F10 cells at 10 to 100 uM incubated for 48 hrs by MTT assay; type: functional, cell-based
B16-F10 [9] = test: Induction of apoptosis in mouse B16F10 cells assessed as late apoptosis cells level at 7 uM incubated for 48 hrs by Annexin V-FITC and PI staining based flow cytometry (reference value: 0.02 +/- 0.21%); type: functional
HeLa [10] = test: Antiproliferative activity against human HeLa cells incubated for 48 hrs by MTT assay; type: functional, cell-based
A549 [11] = test: Antiproliferative activity against human A549 cells incubated for 48 hrs by MTT assay; type: functional, cell-based; details: A549, 48 h

Row | IC50 (B16-F10 [5]) [µM] | IC50 (HeLa [10]) [µM] | IC50 (A549 [11]) [µM] | SMILES | IC50 (MCF7) [µM] | selectivity ratio at 48 h [1] | Activity (B16-F10 [2]) [%] | IC50 (HEK293) [µM] | Activity (A549 [3]) | selectivity ratio at 48 h [4] | Activity (HeLa [6]) | selectivity ratio at 48 h [7] | Activity (B16-F10 [8]) | Activity (B16-F10 [9]) [%]
1 | – | – | – | COc1ccccc1[Se]c1c(-c2ccccc2)nc2ccc(F)cn12 | 12.5 | – | – | – | – | – | – | – | – | –
2 | 7.1 | 5.48 | 4.34 | COc1ccc(-c2cn3cc(C4=CCN(C(=O)C(C)(C)C)CC4)ccc3n2)cc1OC | – | 10 to 14 | 25.4 | 66.6 | Active | 10 to 14 | Active | 10 to 14 | Active | 57.3
